Data as given in patent US10287305B2, “Substituted piperidine compound and use thereof” (Takeda Pharmaceutical Company Limited, priority 2016, dated 2019).

Target: human orexin type 2 receptor (hOX2R) (Homo sapiens (Human), UniProt O43614)
Assay: Measurement of orexin type 2 receptor agonist activity (Experimental Example 2-1, FLIPR TETRA, intracellular Ca2+)
Type: cell-based
Conditions: CHO dhfr- cells expressing hOX2R, FLIPR TETRA, Fluo-4AM; for Emax: read-out: Emax (%)

Sequence of human orexin type 2 receptor (hOX2R) (O43614 whole entry): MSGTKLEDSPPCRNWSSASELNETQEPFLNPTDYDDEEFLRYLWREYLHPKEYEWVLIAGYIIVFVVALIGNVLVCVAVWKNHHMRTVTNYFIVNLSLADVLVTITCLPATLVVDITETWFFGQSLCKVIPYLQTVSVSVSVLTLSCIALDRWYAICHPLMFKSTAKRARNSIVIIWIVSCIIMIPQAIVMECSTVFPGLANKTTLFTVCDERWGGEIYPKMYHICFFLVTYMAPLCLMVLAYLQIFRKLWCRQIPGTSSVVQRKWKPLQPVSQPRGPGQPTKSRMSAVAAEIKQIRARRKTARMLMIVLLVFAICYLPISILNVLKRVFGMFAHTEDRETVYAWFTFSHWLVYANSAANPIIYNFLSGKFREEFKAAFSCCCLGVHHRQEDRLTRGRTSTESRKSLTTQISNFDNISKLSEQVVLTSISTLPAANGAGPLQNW

| EC50 | Emax | SMILES |
| --- | --- | --- |
| 2600 nM | 86% | CS(=O)(=O)N[C@H]1CCCN(C(=O)C2CC2)[C@H]1COC1CCC(F)(c2cc(F)cc(F)c2)CC1 (relative stereo) [Example 327, N-(cis-1-(cyclopropylcarbonyl)-2-(((4-(3,5-difluorophenyl)-4-fluorocyclohexyl)oxy)methyl)-piperidin-3-yl)methanesulfonamide] |
| 7100 nM | 72% | CS(=O)(=O)N[C@H]1CCCN(C(=O)C2CC2)[C@H]1CO[C@H]1CC[C@@H](c2ncccn2)CC1 (relative stereo) [Example 328, N-(cis-1-(cyclopropylcarbonyl)-2-(((cis-4-(pyrimidin-2-yl)cyclohexyl)oxy)methyl)piperidin-3-yl)methanesulfonamide] |
| 610 nM | 93% | CS(=O)(=O)N[C@H]1CCCN[C@H]1CO[C@H]1CC[C@@H](c2ccccc2Cl)CC1 (relative stereo) [Example 332, N-(cis-2-(((cis-4-(2-chlorophenyl)cyclohexyl)oxy)-methyl)piperidin-3-yl)methanesulfonamide] |
| 27 nM | 93% | CC(=O)N1CCC[C@H](NS(C)(=O)=O)[C@@H]1CO[C@H]1CC[C@@H](c2ccccc2Cl)CC1 (relative stereo) [Example 334, N-(cis-1-acetyl-2-(((cis-4-(2-chlorophenyl)cyclohexyl)oxy)-methyl)piperidin-3-yl)methanesulfonamide] |
| 6.1 nM | 101% | COC(=O)N1CCC[C@H](NS(C)(=O)=O)[C@@H]1CO[C@H]1CC[C@@H](c2ccccc2Cl)CC1 (relative stereo) [Example 335, methyl cis-2-(((cis-4-(2-chlorophenyl)cyclohexyl)oxy)-methyl)-3-((methylsulfonyl)amino)piperidine-1-carboxylate] |
| 2400 nM | 88% | CC(=O)N1CCC[C@H](NS(C)(=O)=O)[C@@H]1COC1CCC(c2ccccc2)C1 (relative stereo) [Example 337, N-(cis-1-acetyl-2-(((3-phenylcyclopentyl)oxy)methyl)-piperidin-3-yl)methanesulfonamide] |
| 490 nM | 83% | COC(=O)N1CCC[C@H](NS(C)(=O)=O)[C@@H]1COC1CCC(c2ccccc2)C1 (relative stereo) [Example 338, methyl cis-3-((methylsulfonyl)amino)-2-(((3-phenylcyclopentyl)oxy)methyl)-piperidine-1-carboxylate] |
| 11 nM | 101% | CCNC(=O)N1CCC[C@H](NS(C)(=O)=O)[C@@H]1COC1CCC(c2ccccc2)C1 (relative stereo) [Example 339, cis-N-ethyl-3-((methylsulfonyl)amino)-2-(((3-phenylcyclopentyl)oxy)methyl)-piperidine-1-carboxamide] |
| 13 nM | 103% | CC(C)OC(=O)N1CCC[C@H](NS(C)(=O)=O)[C@@H]1CO[C@@H]1CCN(c2ncccn2)C[C@H]1F (relative stereo) [Example 341, isopropyl cis-2-(((trans-3-fluoro-1-(pyrimidin-2-yl)piperidin-4-yl)oxy)methyl)-3-((methylsulfonyl)amino)piperidine-1-carboxylate] |
| 30 nM | 104% | CC(C)OC(=O)N1CCC[C@H](NS(C)(=O)=O)[C@@H]1CO[C@H]1CCN(c2ncccn2)C[C@H]1F (relative stereo) [Example 342, isopropyl cis-2-(((cis-3-fluoro-1-(pyrimidin-2-yl)piperidin-4-yl)oxy)methyl)-3-((methylsulfonyl)amino)piperidine-1-carboxylate] |
| 22 nM | 93% | CC(C)OC(=O)N1CCC[C@H](NS(C)(=O)=O)[C@@H]1CO[C@@H]1CCN(c2ncccn2)[C@H](C)C1 (stereo in doubt) [Example 329, isopropyl cis-2-(((cis-2-methyl-1-(pyrimidin-2-yl)piperidin-4-yl)oxy)methyl)-3-((methylsulfonyl)amino)piperidine-1-carboxylate] |
